Data: patent publication US12662489B2 (Sitryx Therapeutics Limited, priority 2023, dated 2026)

Columns and labels:
human CD4+ T cells = experiment: Human CD4+ T-cell proliferation assay (CFSE, CD3/28 beads); settings: read-out: Proliferation IC50
[1] = target: T1, MTHFD2 recombinant human enzyme (Homo sapiens, UniProt P13995); experiment: MTHFD2 inhibition assay (NAD(P)H-Glo luminescence); settings: for MTHFD1/MTHFD2 IC50 ratio: selectivity of MTHFD2 inhibition over MTHFD1, band
T1 sequence (P13995 36-350): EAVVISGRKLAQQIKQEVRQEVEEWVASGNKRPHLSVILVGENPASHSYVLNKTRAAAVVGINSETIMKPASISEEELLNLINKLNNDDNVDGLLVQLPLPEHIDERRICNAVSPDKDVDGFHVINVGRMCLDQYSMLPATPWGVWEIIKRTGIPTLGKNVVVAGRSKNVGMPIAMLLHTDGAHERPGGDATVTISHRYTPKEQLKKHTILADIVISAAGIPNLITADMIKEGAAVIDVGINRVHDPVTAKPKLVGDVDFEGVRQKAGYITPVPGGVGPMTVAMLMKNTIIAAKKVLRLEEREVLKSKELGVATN

[2] = target: T2, MTHFD1 recombinant human enzyme (Homo sapiens, UniProt P11586); experiment: MTHFD1 inhibition assay (NAD(P)H-Glo luminescence); settings: MTHFD1 IC50, recombinant human enzyme 200 nM, NADP, band
T2 sequence (P11586 2-291 limits assumed): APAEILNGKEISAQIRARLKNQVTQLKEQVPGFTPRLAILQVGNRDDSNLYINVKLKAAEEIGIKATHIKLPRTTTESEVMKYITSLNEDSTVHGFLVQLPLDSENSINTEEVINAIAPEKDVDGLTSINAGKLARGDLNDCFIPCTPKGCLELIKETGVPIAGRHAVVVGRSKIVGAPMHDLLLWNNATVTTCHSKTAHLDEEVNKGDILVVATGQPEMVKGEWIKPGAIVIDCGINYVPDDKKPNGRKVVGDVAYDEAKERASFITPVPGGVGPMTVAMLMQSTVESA

Structure (SMILES)	IC50 [1]	MTHFD1/MTHFD2 IC50 ratio [1]	IC50 [2]	IC50 (human CD4+ T cells)
COC[C@H]1CN(c2cc(C)c3c4c(c(=O)oc3c2C)CN(C(=O)c2cc(N(C)C)c(C(=O)NS(=O)(=O)N(C3CC3)C3CC3)cc2F)CC4)CCN1C [Example 276, (R)-N-(N,N-dicyclopropylsulfamoyl)-2-(dimethylamino)-5-fluoro-4-(8-(3-(methoxymethyl)-4-methylpiperazin-1-yl)-7,10-dimethyl-5-oxo-1,3,4,5-tetrahydro-2H-chromeno[3,4-c]pyridine-3-carbonyl)benzamide]	10 to 100 nM	H (>9.0 to 30)	100 to 1000 nM	1 to 10 nM
COC[C@H]1CN(c2cc(C)c3c4c(c(=O)oc3c2C)CN(C(=O)c2ccc(C(=O)NS(=O)(=O)N3C5CCC3CC5)c(C)c2F)CC4)CCN1C [Example 241]	10 to 100 nM	H (>9.0 to 30)	100 to 1000 nM	100 to 1000 nM
COC[C@H]1CN(c2cc(C)c3c4c(c(=O)oc3c2C)CN(C(=O)c2ccc(C(=O)NS(=O)(=O)N3CCCC3)c(Cl)c2F)CC4)CCN1C [Example 178, (R)-2-chloro-3-fluoro-4-(8-(3-(methoxymethyl)-4-methylpiperazin-1-yl)-7,10-dimethyl-5-oxo-1,3,4,5-tetrahydro-2H-chromeno[3,4-c]pyridine-3-carbonyl)-N-(pyrrolidin-1-ylsulfonyl)benzamide]	10 to 100 nM	J (>30)	100 to 1000 nM	100 to 1000 nM
CCOc1cc(C(=O)N2CCc3c(c(=O)oc4c(C)c(N5CCN(C)[C@@H](COC)C5)cc(C)c34)C2)c(F)cc1C(=O)NS(=O)(=O)N1CCC(C)(C)C1 [Example 217, (R)-N-((3,3-dimethylpyrrolidin-1-yl)sulfonyl)-2-ethoxy-5-fluoro-4-(8-(3-(methoxymethyl)-4-methylpiperazin-1-yl)-7,10-dimethyl-5-oxo-1,3,4,5-tetrahydro-2H-chromeno[3,4-c]pyridine-3-carbonyl)benzamide]	10 to 100 nM	G (^ 3 to 9.0)	100 to 1000 nM	10 to 30 nM
COC[C@H]1CN(c2cc(Cl)c3c4c(c(=O)oc3c2C)CN(C(=O)c2cc(N(C)C)c(C(=O)NS(=O)(=O)N3C[C@H]5C[C@@H]3CO5)cc2F)CC4)CCN1C [Example 294, N-(((1R,4R)-2-oxa-5-azabicyclo[2.2.1]heptan-5-yl)sulfonyl)-4-(10-chloro-8-((R)-3-(methoxymethyl)-4-methylpiperazin-1-yl)-7-methyl-5-oxo-1,3,4,5-tetrahydro-2H-chromeno[3,4-c]pyridine-3-carbonyl)-2-(dimethylamino)-5-fluorobenzamide]	10 to 100 nM	J (>30)	100 to 1000 nM	10 to 30 nM
COC[C@H]1CN(c2cc(C)c3c4c(c(=O)oc3c2C)CN(C(=O)c2cc(N(C)C)c(C(=O)NS(=O)(=O)C3(C)CC3)cc2Cl)CC4)CCN1C [Example 151, (R)-5-chloro-2-(dimethylamino)-4-(8-(3-(methoxymethyl)-4-methylpiperazin-1-yl)-7,10-dimethyl-5-oxo-1,3,4,5-tetrahydro-2H-chromeno[3,4-c]pyridine-3-carbonyl)-N-((1-methylcyclopropyl)sulfonyl)benzamide]	10 to 100 nM	J (>30)	1000 to 5000 nM	100 to 1000 nM
COC[C@H]1CN(c2ccc3c4c(c(=O)oc3c2C)CN(C(=O)c2cc(F)c(C(=O)NS(=O)(=O)N(C)C)c(N3C5CCC3CC5)c2)CC4)CCN1C [Example 23, (R)-2-(7-azabicyclo[2.2.1]heptan-7-yl)-N-(N,N-dimethylsulfamoyl)-6-fluoro-4-(8-(3-(methoxymethyl)-4-methylpiperazin-1-yl)-7-methyl-5-oxo-1,3,4,5-tetrahydro-2H-chromeno[3,4-c]pyridine-3-carbonyl)benzamide]	1 to 10 nM	F (<3)	1 to 10 nM	
COC[C@H]1CN(c2cc(C)c3c4c(c(=O)oc3c2C)CN(C(=O)c2cc(OC3CCC3)cc(C(=O)NS(=O)(=O)N3CCCC3)c2)CC4)CCN1C [Example 164, (R)-3-cyclobutoxy-5-(8-(3-(methoxymethyl)-4-methylpiperazin-1-yl)-7,10-dimethyl-5-oxo-1,3,4,5-tetrahydro-2H-chromeno[3,4-c]pyridine-3-carbonyl)-N-(pyrrolidin-1-ylsulfonyl)benzamide]	100 to 1000 nM	H (>9.0 to 30)	> 5000 nM	

Second part, led by results:

IC50 [1]	MTHFD1/MTHFD2 IC50 ratio [1]	IC50 [2]	Structure (SMILES)	IC50 (human CD4+ T cells)
10 to 100 nM	J (>30)	100 to 1000 nM	CCOc1cc(C(=O)N2CCc3c(c(=O)oc4c(C)c(N5CCN(C)[C@@H](COC)C5)cc(CC)c34)C2)c(F)cc1C(=O)NS(=O)(=O)N1CCCC1 [Example 244, (R)-2-ethoxy-4-(10-ethyl-8-(3-(methoxymethyl)-4-methylpiperazin-1-yl)-7-methyl-5-oxo-1,3,4,5-tetrahydro-2H-chromeno[3,4-c]pyridine-3-carbonyl)-5-fluoro-N-(pyrrolidin-1-ylsulfonyl)benzamide]	100 to 1000 nM
1 to 10 nM	J (>30)	100 to 1000 nM	COC[C@H]1CN(c2cc(C)c3c4c(c(=O)oc3c2C)CN(C(=O)c2cc(F)c(C(=O)NS(=O)(=O)N3CCCC3)cc2OC)CC4)CCN1C [Example 266, (R)-2-fluoro-5-methoxy-4-(8-(3-(methoxymethyl)-4-methylpiperazin-1-yl)-7,10-dimethyl-5-oxo-1,3,4,5-tetrahydro-2H-chromeno[3,4-c]pyridine-3-carbonyl)-N-(pyrrolidin-1-ylsulfonyl)benzamide]	1000 to 5000 nM
1 to 10 nM	J (>30)	100 to 1000 nM	CCOc1cc(C(=O)N2CCc3c(c(=O)oc4c(C)c(N5CCN(C)[C@@H](COC)C5)cc(C)c34)C2)c(F)cc1C(=O)NS(=O)(=O)N1CC[C@H](F)C1 [Example 268, 2-ethoxy-5-fluoro-N-(((S)-3-fluoropyrrolidin-1-yl)sulfonyl)-4-(8-((R)-3-(methoxymethyl)-4-methylpiperazin-1-yl)-7,10-dimethyl-5-oxo-1,3,4,5-tetrahydro-2H-chromeno[3,4-c]pyridine-3-carbonyl)benzamide]	1 to 10 nM
1 to 10 nM	J (>30)	100 to 1000 nM	COC[C@H]1CN(c2cc(C)c3c4c(c(=O)oc3c2C)CN(C(=O)c2cc(OC)c(C(=O)NS(=O)(=O)N3CCCC3)cc2F)CC4)CCN1C [Example 224, (R)-5-fluoro-2-methoxy-4-(8-(3-(methoxymethyl)-4-methylpiperazin-1-yl)-7,10-dimethyl-5-oxo-1,3,4,5-tetrahydro-2H-chromeno[3,4-c]pyridine-3-carbonyl)-N-(pyrrolidin-1-ylsulfonyl)benzamide]	30 to 100 nM
1 to 10 nM	J (>30)	100 to 1000 nM	CCOc1cc(C(=O)N2CCc3c(c(=O)oc4c(C)c(N5CCN(C)[C@@H](COC)C5)cc(C)c34)C2)c(F)cc1C(=O)NS(=O)(=O)N1C[C@@H]2C[C@H]1CO2 [Example 267, N-(((1S,4S)-2-oxa-5-azabicyclo[2.2.1]heptan-5-yl)sulfonyl)-2-ethoxy-5-fluoro-4-(8-((R)-3-(methoxymethyl)-4-methylpiperazin-1-yl)-7,10-dimethyl-5-oxo-1,3,4,5-tetrahydro-2H-chromeno[3,4-c]pyridine-3-carbonyl)benzamide]	100 to 1000 nM
1 to 10 nM	J (>30)	100 to 1000 nM	COC[C@H]1CN(c2cc(C)c3c4c(c(=O)oc3c2C)CN(C(=O)c2cc(Cl)c(C(=O)NS(=O)(=O)N(C)C)c(N3CC5CC5C3)c2)CC4)CCN1C (stereo partly drawn) [Example 34, 2-(3-azabicyclo[3.1.0]hexan-3-yl)-6-chloro-N-(N,N-dimethylsulfamoyl)-4-(8-((R)-3-(methoxymethyl)-4-methylpiperazin-1-yl)-7,10-dimethyl-5-oxo-1,3,4,5-tetrahydro-2H-chromeno[3,4-c]pyridine-3-carbonyl)benzamide]	
1 to 10 nM	F (<3)	1 to 10 nM	COC[C@H]1CN(c2ccc3c4c(c(=O)oc3c2Cl)CN(C(=O)c2ccc(C(=O)NS(=O)(=O)C3(C)CC3)c(O[C@@H]3C[C@@H]5C[C@@H]5C3)c2F)CC4)CCN1C [Example 60, 2-(((1R,3r,5S)-bicyclo[3.1.0]hexan-3-yl)oxy)-4-(7-chloro-8-((R)-3-(methoxymethyl)-4-methylpiperazin-1-yl)-5-oxo-1,3,4,5-tetrahydro-2H-chromeno[3,4-c]pyridine-3-carbonyl)-3-fluoro-N-((1-methylcyclopropyl)sulfonyl)benzamide]	
